Assays:
[1] = Solubility of the quinone compound in aqueous solution / solvents; assay type: physicochemical
Source text: The quinone compound can be applied to the substrate in the form of a solution. The solution can be an aqueous or semi-aqueous solution. The quinone compound can be soluble or semi-soluble in the solution. Depending on the pH of the solution the quinone compound can be soluble or partially soluble. The partially soluble quinone can exist as either suspended crystalline particles, fine particles, colloidal particles, etc. […] This compound can exist in solution as particles, crystals, colloids, etc. In some embodiments, the semi-aqueous or non-aqueous solutions containing suitable particles, crystals, colloids, etc. can be used to achieve penetration of a quinone compound into and under the surface of a substrate.
(§1) A power pole made from southern yellow pine is treated with a sodium salt of 9,10 dihyroxyanthracene (also known as AHQ or anthrahydroquinone) to render the pole resistant to pest and/or fungal damage. The sodium salt of 9,10 dihyroxyanthracene is stable in an oxygen free and high pH environment (e.g., above pH 11). In the high pH solution, the compound has a solubility of around 10% (wt/v). A 10% solution of AHQ is prepared in an aqueous solution having a pH of about 12. The pole is soaked in the bath of 10% AHQ for about 20-30 minutes at 70-80° C. with little or no air exposure. A portion of the AHQ penetrates into the top layer of the pole. The depth of penetration can range from 1 mm to 200 mm.
(§2) After soaking, the pole is transferred to a water tank where the surface would be neutralized. The water having a nominal pH of about 7. Alternatively, the pole is dried in air without rinsing. AHQ is unstable in the presence of air (e.g., oxygen) unless it is maintained in a high pH solution. If exposed to a lower pH or air (e.g., oxygen), the AHQ can be converted to 9,10 anthraquinone (also known as AQ). AQ is insoluble in almost every solvent including water. Therefore, AQ precipitates out of solution and becomes trapped in the top layer of the pole. AQ forms both on the surface and inside the wood fibers of the upper layers of the pole. This outer layer of pole is now both termite and woodpecker proof. Because anthraquinones can be effective fungicides, the pole is now also fungi proof.

Pileated woodpeckers = assay: Caged Pileated woodpecker trials (two-choice then one-choice test) with treated and untreated utility pole sections; assay type: in vivo, Pileated woodpecker (Dryocopus pilealus); details: poles treated with AHQ versus untreated poles; FIGS. 2-4
Description: Overview. A series of caged Pileated woodpecker trials are conducted using power pole segments both untreated and treated with a quinone. The treatment segments contain the quinone compound in a range of concentrations. The quinone compound is also applied by either painting or soaking. The quinone compound is applied in a high pH solution (i.e., in a water soluble form). Thereafter, the segments are treated with a lower pH solution to convert the quinone to a water insoluble form. The bird's preference to nest building excavation for each segment is measured. Both the soaked and painted segments show lower incidence of nesting evacuation. […]
The initial placement of the treated and the untreated poles in each enclosure was randomly determined. […] At the beginning of each test day, starting on day 2 (0800), woodpecker damage to each pole was measured by collecting and weighing the wood chips that were removed. […] The camera recorded woodpecker activity on poles for during the first two hours of each day during the test period. […]
The weight of wood chips removed by Pileated woodpeckers follow a three-factor repeated measures design, where observations are repeated on each bird for all three factors: treatment (chemical) time (pre and post-treatment), and pole (control and treated)). All data was analyzed as mixed liner models. […]

[2] = Stability of AHQ towards air (oxygen) and pH; assay type: physicochemical
Description: as §1
as §2, with “This outer layer of pole is now both termite and woodpecker proof. Because anthraquinones can be effective fungicides, the pole is now also fungi proof.” left out

## Oc1c2ccccc2c(O)c2ccccc12 [9,10-anthrahydroquinone]
[1]; slightly basic or neutral pH values
  solubility in aqueous solutions: only slightly soluble or insoluble

## [Na+].[Na+].[O-]c1c2ccccc2c([O-])c2ccccc12 [AHQ, sodium salt of 9,10 dihyroxyanthracene]
Pileated woodpeckers
  weight of wood chips removed from poles: surprisingly less than the weight of wood chips removed from untreated poles
[1]; high pH (e.g., pH 11 or more)
  solubility in aqueous solutions: readily soluble
[1]; in the high pH solution (e.g., above pH 11)
  solubility: around 10 % (wt/v)
[2]; oxygen free and high pH environment (e.g., above pH 11)
  stability: stable
[2]; presence of air (e.g., oxygen), unless maintained in a high pH solution
  stability: unstable

## O=C1c2ccccc2C(=O)c2ccccc21 [AQ, 9,10 anthraquinone]
[1]
  solubility in solvents: insoluble

— patent US20170298209A1, “USE OF A QUINONE COMPOUND IN BUILDING MATERIALS” (Arkion Life Sciences, LLC, priority 2014, published 2017)
